The source of these data is patent US10676465B2, “GLP-1 receptor agonists and uses thereof” (Pfizer Inc., priority 2018, dated 2020).

The structures appear in SMILES notation. Like-named read-outs stand apart in the source and are kept apart here.

The target of assay [1] is human GLP-1R (Homo sapiens (Human), UniProt P43220, L260F). Kind of assay: CHO GLP-1R Clone C6 - Assay 2 (HTRF cAMP agonist assay, low receptor density). The note with it: for Emax: read-out: Assay 2 Emax (%), CHO GLP-1R Clone C6 (low receptor density); for Emax / Assay 2 Emax (%): arithmetic mean, relative to saturating GLP-1 (1 μM). A general note: Time-resolved FRET reads energy transfer from a long-lived donor to a nearby acceptor.
human GLP-1R (Homo sapiens (Human), UniProt P43220, L260F), sequence (P43220 24-463 L260F): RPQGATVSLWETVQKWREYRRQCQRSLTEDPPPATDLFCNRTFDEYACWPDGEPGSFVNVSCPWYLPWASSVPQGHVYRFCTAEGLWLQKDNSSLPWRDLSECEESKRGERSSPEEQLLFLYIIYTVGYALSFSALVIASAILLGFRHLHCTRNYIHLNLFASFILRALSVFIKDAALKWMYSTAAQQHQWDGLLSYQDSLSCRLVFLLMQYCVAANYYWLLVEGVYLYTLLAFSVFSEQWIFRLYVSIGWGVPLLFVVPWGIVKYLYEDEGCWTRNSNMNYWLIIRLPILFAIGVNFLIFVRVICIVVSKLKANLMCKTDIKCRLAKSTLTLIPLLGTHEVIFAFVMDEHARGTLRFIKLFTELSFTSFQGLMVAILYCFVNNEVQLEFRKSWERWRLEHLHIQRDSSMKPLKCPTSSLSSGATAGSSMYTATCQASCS

Assay [2] has as its target human GLP-1R (Homo sapiens, UniProt P43220, G168S). Kind of assay: CHO GLP-1R Clone H6 - Assay 1 (HTRF cAMP agonist assay). The class given is cell-based. The following applies: for EC50: CHO GLP-1R Clone H6, cAMP HTRF, geometric mean; for Assay 1 Emax (%) / Emax: CHO GLP-1R Clone H6, arithmetic mean, relative to saturating GLP-1 (1 μM).
Method: GLP-1R-mediated agonist activity was determined with a cell-based functional assay utilizing an HTRF (Homogeneous Time-Resolved Fluorescence) cAMP detection kit (cAMP HI Range Assay Kit; CisBio cat #62AM6PEJ) that measures cAMP levels in the cell. The method is a competitive immunoassay between native cAMP produced by the cells and exogenous cAMP labeled with the dye d2. The tracer binding is visualized by a mAb anti-cAMP labeled with Cryptate. The specific signal (i.e. energy transfer) is inversely proportional to the concentration of cAMP in either standard or experimental sample.
The human GLP-1R coding sequence (NCBI Reference Sequence NP_002053.3, including naturally-occurring variant Gly168Ser) was subcloned into pcDNA3 (Invitrogen) and a cell line stably expressing the receptor was isolated (designated Clone H6).
Cells were removed from cryopreservation, re-suspended in 40 mL of Dulbecco's Phosphate Buffered Saline (DPBS—Lonza Cat #17-512Q) and centrifuged at 800×g for 5 minutes at 22° C. The cell pellet was then re-suspended in 10 mL of growth medium [DMEM/F12 1:1 Mixture with HEPES, L-Gln, 500 mL (DMEM/F12 Lonza Cat #12-719F), 10% heat inactivated fetal bovine serum (Gibco Cat #16140-071), 5 mL of 100× Pen-Strep (Gibco Cat #15140-122), 5 mL of 100×L-Glutamine (Gibco Cat #25030-081) and 500 μg/mL Geneticin (G418) (Invitrogen #10131035)]. A 1 mL sample of the cell suspension in growth media was counted on a Becton Dickinson ViCell to determine cell viability and cell count per mL. The remaining cell suspension was then adjusted with growth media to deliver 2000 viable cells per well using a Matrix Combi Multidrop reagent dispenser, and the cells were dispensed into a white 384 well tissue culture treated assay plate (Corning 3570). The assay plate was then incubated for 48 hours at 37° C. in a humidified environment in 5% carbon dioxide.
Varying concentrations of each compound to be tested (in DMSO) were diluted in assay buffer (HBSS with Calcium/Magnesium (Lonza/BioWhittaker cat #10-527F)/0.1% BSA (Sigma Aldrich cat # A7409-1L)/20 mM HEPES (Lonza/BioWhittaker cat #17-737E) containing 100 μM 3-isobutyl-1-methylxanthin (IBMX; Sigma cat #15879). The final DMSO concentration is 1%.
After 48 hours, the growth media was removed from the assay plate wells, and the cells were treated with 20 μL of the serially diluted compound in assay buffer for 30 minutes at 37° C. in a humidified environment in 5% carbon dioxide. Following the 30 minute incubation, 10 μL of labeled d2 cAMP and 10 μL of anti-cAMP antibody (both diluted 1:20 in cell lysis buffer; as described in the manufacturer's assay protocol) were added to each well of the assay plate. The plates were then incubated at room temperature and after 60 minutes, changes in the HTRF signal were read with an Envision 2104 multi-label plate reader using excitation of 330 nm and emissions of 615 and 665 nm. Raw data were converted to nM cAMP by interpolation from a cAMP standard curve (as described in the manufacturer's assay protocol) and the percent effect was determined relative to a saturating concentration of the full agonist GLP-17-36 (1 μM) included on each plate. EC50 determinations were made from agonist dose-response curves analyzed with a curve fitting program using a 4-parameter logistic dose response equation.
Setting [3] is: Assay 2 EC50 (nM), CHO GLP-1R Clone C6 (low receptor density), cAMP HTRF, geometric mean.
Setting [4] is: read-out: Assay 2 EC50, CHO GLP-1R Clone C6 (low receptor density), cAMP HTRF, geometric mean.
Setting [5] is: CHO GLP-1R Clone C6 (low receptor density).
[6] abbreviates: EC50 in Assay 2, CHO GLP-1R Clone C6, cAMP, geometric mean of replicates.

human GLP-1R (Homo sapiens, UniProt P43220, G168S), sequence (P43220 24-463 G168S limits assumed): as the sequence (P43220 24-463 L260F) above, with G145S, F237L counted along it

Usually EC50 stands for the concentration needed to bring the measured effect to its halfway point. By Emax is commonly meant the maximal effect, on the per cent scale that the assay sets. `COCCn1c(C2CC23CCN(c2cccc4c2OC(C)(c2ccc(Cl)cc2F)O4)CC3)nc2ccc(C(=O)O)cc21` (single isomer, unassigned) [Example 16, 2-{6-[2-(4-Chloro-2-fluorophenyl)-2-methyl-1,3-benzodioxol-4-yl]-6-azaspiro[2.5]oct-1-yl}-1-(2-methoxyethyl)-1H-benzimidazole-6-carboxylic Acid]: the EC50 turned out to be 120 nM on human GLP-1R [1] (setting [3]) and 7.7 nM on human GLP-1R [2]. Further, the Emax on human GLP-1R [1] was 64%. The “Assay 1 Emax (%)” value on human GLP-1R [2] came to 90%.
With `CCn1cncc1Cn1c(CN2CCC(c3cccc4c3O[C@@](C)(c3ccc(Cl)cc3F)O4)CC2)nc2ccc(C(=O)O)cc21` (single isomer, unassigned) [Example 17, Ammonium 2-({4-[2-(4-chloro-2-fluorophenyl)-2-methyl-1,3-benzodioxol-4-yl]piperidin-1-yl}methyl)-1-[(I-ethyl-1H-imidazol-5-yl)methyl]-1H-benzimidazole-6-carboxylate], the results for the EC50 on human GLP-1R [1] (setting [4]) and at human GLP-1R [2] were 1.1 nM and 0.079 nM, respectively.
As for `CCn1cncc1Cn1c(CN2CCC(c3cccc4c3O[C@](C)(c3ccc(Cl)cc3F)O4)CC2)nc2ccc(C(=O)O)cc21` (single isomer, unassigned) [Example 18, Ammonium 2-({4-[2-(4-chloro-2-fluorophenyl)-2-methyl-1,3-benzodioxol-4-yl]piperidin-1-yl}methyl)-1-[(I-ethyl-1H-imidazol-5-yl)methyl]-1H-benzimidazole-6-carboxylate], on human GLP-1R [1] (setting [5]), the “Assay 2 Emax (%)” value is recorded as 87%. In addition, the results for the EC50 on human GLP-1R [1] (setting [4]) and at human GLP-1R [2] were 1000 nM and 210 nM, respectively.
Turning to `COCCn1c(C2CC23CCN(c2cccc4c2OC(C)(c2ccc(Cl)cc2F)O4)CC3)nc2ccc(C(=O)O)cc21` (single isomer, unassigned) [Example 25, 2-{6-[2-(4-chloro-2-fluorophenyl)-2-methyl-1,3-benzodioxol-4-yl]-6-azaspiro[2.5]oct-1-yl}-1-(2-methoxyethyl)-1H-benzimidazole-6-carboxylic acid], the EC50 on human GLP-1R [1] (setting [3]) and at human GLP-1R [2] was greater than 20000 nM in each case.
As to `COCCn1c(C2CC23CCN(c2cccc4c2OC(C)(c2ccc(Cl)cc2F)O4)CC3)nc2ccc(C(=O)O)cc21` (single isomer, unassigned) [Example 26, 2-{6-[2-(4-chloro-2-fluorophenyl)-2-methyl-1,3-benzodioxol-4-yl]-6-azaspiro[2.5]oct-1-yl}-1-(2-methoxyethyl)-1H-benzimidazole-6-carboxylic acid], the EC50 on human GLP-1R [1] (setting [3]) and at human GLP-1R [2] was greater than 20000 nM throughout.
With `CC1(c2ccc(Cl)cc2F)Oc2c(F)ccc(C3CCN(Cc4nc5ccc(C(=O)O)cc5n4C[C@@H]4CCO4)CC3)c2O1` (single isomer, unassigned) [Example 96], the figures for the EC50 at human GLP-1R [1] (setting [3]) and on human GLP-1R [2] were 11 nM and 1.1 nM, respectively. Moreover, the results for the Emax at human GLP-1R [1] and at human GLP-1R [2] were 93% and 85%, respectively.
Take `CC1(c2ccc(Cl)cc2F)Oc2c(F)ccc(C3CCN(Cc4nc5ccc(C(=O)O)cc5n4C[C@@H]4CCO4)CC3)c2O1` (single isomer, unassigned) [Example 97]: the EC50 on human GLP-1R [1] (setting [3]) worked out at 140 nM; at human GLP-1R [2], 14 nM. Also, on human GLP-1R [1] (setting [5]), the “Assay 2 Emax (%)” value was 93%. For the same compound, on human GLP-1R [2], the “Assay 1 Emax (%)” value is 86%.
As to `COCCn1c(CN2CCC(c3cccc4c3OC(C)(c3ccc(Cl)cc3F)O4)CC2)nc2ncc(C(=O)O)cc21` (centres unmarked) [Example 3, 2-({4-[2-(4-Chloro-2-fluorophenyl)-2-methyl-1,3-benzodioxol-4-yl]piperidin-1-yl}methyl)-1-(2-methoxyethyl)-1H-imidazo[4,5-b]pyridine-6-Carboxylic Acid], the results for the EC50 at human GLP-1R [1] (setting [4]) and at human GLP-1R [2] were 45 nM and 1.3 nM, respectively. For the same compound, the figures for the Emax on human GLP-1R [1] and at human GLP-1R [2] were 120% and 94%, respectively.
On to `O=C(O)c1ccc2nc(CN3CCC(c4cccc5c4O[C@H](c4ccc(Cl)cc4F)O5)CC3)n(C[C@@H]3CCO3)c2c1` [Example 4, Ammonium 2-({4-[(2R)-2-(4-chloro-2-fluorophenyl)-1,3-benzodioxol-4-yl]piperidin-1-yl}methyl)-1-[(2S)-oxetan-2-ylmethyl]-1H-benzimidazole-6-carboxylate], for which the EC50 on human GLP-1R [1] (setting [4]) is greater than 20000 nM; at human GLP-1R [1] (read-out: EC50 in Assay 2, CHO GLP-1R Clone C6, cAMP, geometric mean of replicates) it was greater than 20000 nM; on human GLP-1R [2] it was 1600 nM. The compound further gave an Emax at human GLP-1R [2] of 87%.
As for `O=C(O)c1ccc2nc(CN3CCC(c4cccc5c4O[C@@H](c4ccc(Cl)cc4F)O5)CC3)n(C[C@@H]3CCO3)c2c1` [Example 5, Ammonium 2-({4-[(2S)-2-(4-chloro-2-fluorophenyl)-1,3-benzodioxol-4-yl]piperidin-1-yl}methyl)-1-[(2S)-oxetan-2-ylmethyl]-1H-benzimidazole-6-carboxylate], the EC50 on human GLP-1R [1] (setting [6]) was 20 nM; at human GLP-1R [1] (setting [4]), 23 nM; on human GLP-1R [2], 1.3 nM. For the same compound, the Emax came out at 97% at human GLP-1R [1] and 89% on human GLP-1R [2].
As to `C[C@@]1(c2ccc(Cl)cc2F)Oc2cccc(C3CCN(Cc4nc5ccc(C(=O)O)cc5n4C[C@@H]4CCO4)CC3)c2O1` [Example 6, Ammonium 2-({4-[(2R)-2-(4-chloro-2-fluorophenyl)-2-methyl-1,3-benzodioxol-4-yl]piperidin-1-yl}methyl)-1-[(2S)-oxetan-2-ylmethyl]-1H-benzimidazole-6-carboxylate], the EC50 at human GLP-1R [1] (setting [3]) worked out at 2400 nM; at human GLP-1R [1] (setting [6]) it was 2400 nM; on human GLP-1R [2], 140 nM. In addition, the Emax on human GLP-1R [1] and at human GLP-1R [2] was 89% each time.
As to `C[C@]1(c2ccc(Cl)cc2F)Oc2cccc(C3CCN(Cc4nc5ccc(C(=O)O)cc5n4C[C@@H]4CCO4)CC3)c2O1` [Example 7, Ammonium 2-({4-[(2S)-2-(4-chloro-2-fluorophenyl)-2-methyl-1,3-benzodioxol-4-yl]piperidin-1-yl}methyl)-1-[(2S)-oxetan-2-ylmethyl]-1H-benzimidazole-6-carboxylate], the EC50 is 3.1 nM on human GLP-1R [1] (setting [3]), 2.9 nM on human GLP-1R [1] (setting [6]) and 0.26 nM at human GLP-1R [2]. The results for the Emax at human GLP-1R [1] and at human GLP-1R [2] were 93% and 98%, respectively.
Regarding `CN(C)CCn1c(CN2CCC(c3cccc4c3OC(C)(c3ccc(Cl)cc3F)O4)CC2)nc2ccc(C(=O)O)cc21` (centres unmarked) [Example 12, 2-({4-[2-(4-Chloro-2-fluorophenyl)-2-methyl-1,3-benzodioxol-4-yl]piperidin-1-yl}methyl)-1-[2-(dimethylamino)ethyl]-1H-benzimidazole-6-carboxylic Acid], the figures for the EC50 at human GLP-1R [1] (setting [3]) and at human GLP-1R [2] were 690 nM and 29 nM, respectively. For the same compound, the figures for the Emax at human GLP-1R [1] and at human GLP-1R [2] were 92% and 83%, respectively.
For the compound `CC1(c2ccc(Cl)cc2F)Oc2cccc(C3CCN(Cc4nc5ccc(C(=O)O)nc5n4Cc4ncco4)CC3)c2O1` (centres unmarked) [Example 13, 2-({4-[2-(4-Chloro-2-fluorophenyl)-2-methyl-1,3-benzodioxol-4-yl]piperidin-1-yl}methyl)-3-(1,3-oxazol-2-ylmethyl)-3H-imidazo[4,5-b]pyridine-5-carboxylic Acid], the EC50 was determined as 38 nM on human GLP-1R [1] (setting [3]) and 4.5 nM on human GLP-1R [2]. In addition, the Emax on human GLP-1R [1] amounted to 110%; at human GLP-1R [2] it was 95%.
With `Cn1c(CN2CCC(c3cccc4c3O[C@@](C)(c3ccc(Cl)cc3F)O4)CC2)nc2ccc(C(=O)O)cc21` [Example 14, 2-({4-[(2S)-2-(4-Chloro-2-fluorophenyl)-2-methyl-1,3-benzodioxol-4-yl]piperidin-1-yl}methyl)-1-methyl-1H-benzimidazole-6-carboxylic Acid], the EC50 on human GLP-1R [1] (setting [4]) worked out at 79 nM; at human GLP-1R [2], 7 nM. In addition, the Emax on human GLP-1R [1] turned out to be 85%; on human GLP-1R [2], 95%.
